Measured values taken from patent publication US8569302B2, “Inhibitors of flaviviridae viruses” (Gilead Sciences, Inc., priority 2009, dated 2013).

Tested on: human hepatoma Huh-7 cell line harboring a HCV replicon
Assay: HCV replicon assay (inhibition of viral replication, luciferase readout)
Format: cell-based
Conditions: Hepatitis C virus, 72 h, Huh-7 HCV replicon cells, 3 days incubation
Protocol: The anti-HCV activity of the compounds of this invention was tested in a human hepatoma Huh-7 cell line harboring a HCV replicon. The assay comprised the following steps:
Step 1: Compound Preparation and Serial Dilution.
Serial dilution was performed in 100% DMSO in a 384-well plate. A solution containing a compound at 225-fold concentration of the starting final serial dilution concentration was prepared in 100% DMSO and 15 μL added to the pre-specified wells in column 3 or 13 of a polypropylene 384-well plate. The rest of the 384-well plate was filled with 10 μL 100% DMSO except for columns 23 and 24, where 10 μL of 500 μM a HCV protease inhibitor (ITMN-191) in 100% DMSO was added. The HCV protease inhibitor was used a control of 100% inhibition of HCV replication. The plate was then placed on a Biomek FX Workstation to start the serial dilution. The serial dilution was performed for ten cycles of 3-fold dilution from column 3 to 12 or from column 13 to 22.
Step 2: Cell Culture Plate Preparation and Compound Addition
To each well of a black polypropylene 384-well plate, 90 μL of cell media containing 1600 suspended Huh-7 HCV replicon cells was added with a Biotek uFlow Workstation. A volume of 0.4 μL of the compound solution was transferred from the serial dilution plate to the cell culture plate on a Biomek FX Workstation. The DMSO concentration in the final assay condition was 0.44%. The plates were incubated for 3 days at 37° C. with 5% CO2 and 85% humidity.
Step 3: Detection of Cytotoxicity and Inhibition of Viral Replication
a) Assessment of cytotoxicity: The media in the 384-well cell culture plate was aspirated with a Biotek EL405 plate-washer. A volume of 50 μL of a solution containing 400 nM Calcein AM in 100% PBS was added to each well of the plate with a Biotek uFlow Workstation. The plate was incubated for 30 minutes at room temperature before the fluorescence signal ([…]) was measured with a Perkin Elmer Envision Plate Reader.
b) Assessment of inhibition of viral replication: The calcein-PBS solution in the 384-well cell culture plate was aspirated with a Biotek EL405 plate-washer. A volume of 20 μL of Dual-Glo luciferase buffer (Promega, Dual-Glo Luciferase Assay Reagent, cat. #E298B) was added to each well of the plate with a Biotek uFlow Workstation. The plate was incubated for 10 minutes at room temperature. A volume of 20 μL of a solution containing 1:100 mixture of Dual-Glo Stop & Glo substrate (Promega, Dual-Glo Luciferase Assay Reagent, cat. #E313B) and Dual-Glo Stop & Glo buffer (Promega, Dual-Glo Luciferase Assay Reagent, cat. #E314B) was then added to each well of the plate with a Biotek uFlow Workstation. The plate was incubated at room temperature for 10 minutes before the luminescence signal was measured with a Perkin Elmer Envision Plate Reader.
The percent cytotoxicity was determined by calcein AM conversion to fluorescent product. The average fluorescent signal from the DMSO control wells was defined as 100% nontoxic. The individual fluorescent signal from testing compound treated well was divided by the average signal from DMSO control wells and then multiplied by 100% to get the percent viability. The percent anti-HCV replication activity was determined by the luminescence signal from the testing well compared to DMSO control wells. The background signal was determined by the average luminescence signal from the HCV protease inhibitor treated wells and was subtracted from the signal from the testing wells as well as the DMSO control wells. Following 3-fold serial dilutions, the EC50 and CC50 values were calculated by fitting % inhibition at each concentration to the following equation: % inhibition=100%/[EC50/[I])^b+1]
Where b is Hill's coefficient. See, for reference, Hill, A. V., The Possible Effects of the Aggregation of the Molecules of Hæmoglobin on its Dissociation Curves, J. Physiol. 40: iv-vii. (1910). […]

Compound	inhibition at 2 µM [%]
CN(C)C1CCN(C(=O)c2ccnc(O[C@H]3CC[C@H](N(c4cc(C#CC(C)(C)C)sc4C(=O)O)C(=O)[C@H]4CC[C@H](C)CC4)CC3)c2)C1 (stereo partly shown) [Compound 169, Sodium 3-(N-(4-(4-(3-(dimethylamino)pyrrolidine-1-carbonyl)pyridin-2-yloxy)cyclohexyl)-4-methylcyclohexanecarboxamido)-5-(3,3-dimethylbut-1-ynyl)thiophene-2-carboxylate]	100
CC(C)(C)C#Cc1cc(N(C(=O)[C@H]2CC[C@H](C)CC2)[C@H]2CC[C@H](Oc3cncc(N4CCCC4)n3)CC2)c(C(=O)O)s1 [Compound 153, 5-(3,3-Dimethylbut-1-ynyl)-3-(4-methyl-N-(4-(6-(pyrrolidin-1-yl)pyrazin-2-yloxy)cyclohexyl)cyclohexanecarboxamido)thiophene-2-carboxylic acid]	100
Cn1nccc1S(=O)(=O)N1CCC(N(c2cc(C#CC(C)(C)C)sc2C(=O)O)C(=O)[C@H]2CC[C@H](C)CC2)CC1 [Compound 203, 5-(3,3-Dimethyl-but-1-ynyl)-3-{(4-methyl-cyclohexanecarbonyl)-[1-(2-methyl-2H-pyrazole-3-sulfonyl)-piperidin-4-yl]-amino}-thiophene-2-carboxylic acid]	99.8
CC(C)(C)C#Cc1cc(N(C(=O)[C@H]2CC[C@H](C)CC2)[C@H]2CC[C@H](Oc3cc(C(=O)N4CCCC4)ccn3)CC2)c(C(=O)O)s1 [Compound 166, Sodium 5-(3,3-dimethylbut-1-ynyl)-3-(4-methyl-N-(4-(4-(pyrrolidine-1-carbonyl)pyridin-2-yloxy)cyclohexyl)cyclohexanecarboxamido)thiophene-2-carboxylate]	99.9
C[C@@H](CCOc1cccnc1)N(c1cc(C#CC(C)(C)C)sc1C(=O)O)C(=O)[C@H]1CC[C@H](C)CC1 [Compound 58]	99.9
CC(C)(C)C#Cc1cc(N(C(=O)[C@H]2CC[C@H](C)CC2)[C@H]2CC[C@H](Oc3cccnc3)CC2)c(C(=O)O)s1 [Compound 5, 5-(3,3-Dimethyl-but-1-ynyl)-3-{(trans-4-methyl-cyclohexanecarbonyl)-[trans-4-(pyridin-3-yloxy)-cyclohexyl]-amino}-thiophene-2-carboxylic acid]	99.8
Cc1cccc(O[C@H]2CC[C@H](N(c3cc(C#CC(C)(C)C)sc3C(=O)O)C(=O)[C@H]3CC[C@H](C)CC3)CC2)n1 [Compound 8, 5-(3,3-Dimethyl-but-1-ynyl)-3-{(trans-4-methyl-cyclohexanecarbonyl)-[trans-4-(6-methyl-pyridin-2-yloxy)-cyclohexyl]-amino}-thiophene-2-carboxylic acid]	96.7
Cc1nnc(S[C@H]2CC[C@@H](N(c3cc(C#CC(C)(C)C)sc3C(=O)O)C(=O)[C@H]3CC[C@H](C)CC3)CC2)s1 [Compound 103, 5-(3,3-Dimethylbut-1-ynyl)-3-(4-methyl-N-(4-(5-methyl-1,3,4-thiadiazol-2-ylthio)cyclohexyl)cyclohexanecarboxamido)thiophene-2-carboxylic acid]	98.3
CC(C)(C)C#Cc1cc(N(C(=O)[C@H]2CC[C@H](C)CC2)[C@H]2CC[C@H](Oc3ccnnc3)CC2)c(C(=O)O)s1 [Compound 185, 5-(3,3-Dimethylbut-1-ynyl)-3-(4-methyl-N-(4-(pyridazin-4-yloxy)cyclohexyl)cyclohexanecarboxamido)thiophene-2-carboxylic acid]	84.7
CC1CCC(C(=O)N(c2cc(C#CC(C)(C)C)sc2C(=O)O)[C@H]2CC[C@H](Oc3cnccc3CN(C)C)CC2)CC1 (stereo partly shown) [Compound 198, 3-[[-4-(4-dimethylaminomethyl-pyridin-3-yloxy)-cyclohexyl]-(4-methyl-cyclohexanecarbonyl)-amino]-5-(3,3-dimethyl-but-1-ynyl)-thiophene-2-carboxylic acid]	99.9
